Measured values as given in patent US10702506B2, “Small molecule inhibitors of pendrin ion exchange and pharmaceutical compositions” (THE REGENTS OF THE UNIVERSITY OF CALIFORNIA, priority 2016, dated 2020).

Assays:
[1] = test system: HBE and CFBE cell cultures; experiment: ASL depth by confocal imaging of rhodamine B-dextran in HBE and CFBE cultures; type: cell-based, human; details: 25 μM, 4-6 hours
Procedure: ASL depth was measured in HBE and CFBE cell cultures under basal conditions and with chronic IL-13-treatment. […] Treatment of HBE and CFBE cell cultures with IL-13 produced a significant increase in ASL depth to ˜16 μm. Remarkably, treatment of IL-13-treated HBE and CFBE cell cultures with PDSinh-A01 produced a significant further increase in ASL depth of ˜8 μm (FIG. 6A, right; summary in FIG. 6B). Pendrin inhibition thus causes ASL hydration in IL-13-treated HBE and CFBE cell cultures, providing pharmacological evidence for pendrin as a key regulator of ASL hydration in airway cell cultures exposed to an inflammatory stimulant.
ASL depth was measured by confocal imaging of rhodamine B-dextran fluorescence (20 μl of 0.1 mg/ml in PBS) applied 4-6 h prior to measurement. Scanning confocal microscopy was done using an upright Nikon EZ-C1 confocal microscope equipped with a LUMplan FL N 60×/1.00w objective (Olympus, Waltham, Mass.). […] In some experiments ASL depth was measured after treatment with 25 μM PDSinh-A01 in the culture medium for 4-6 hours. ASL depth was measured using a multi-point histogram method in which each confocal z-stack was fitted to a quadratic function, as described and validated previously.

[2] = test system: HBE and CFBE cell cultures; experiment: ASL pH by BCECF-dextran ratio imaging in HBE and CFBE cultures; type: cell-based, human; details: 25 μM, 4 hours
Procedure: To investigate the possible involvement of pendrin in ASL pH regulation, fluorescence ratio imaging was done of the ASL in HBE and CFBE cultures after staining with BCECF-dextran. In the absence of IL-13-treatment, ASL pH was ˜0.3 pH units more acidic in CFBE than HBE cultures (FIG. 5C; pH ˜7.4 vs. ˜7.1), in agreement with prior studies showing relative ASL acidity in CF.
ASL pH was measured using the pH-sensitive fluorophore BCECF conjugated to 10 kDa dextran (Invitrogen, Carlsbad, Calif.) as described, which was added 4-6 h prior to measurement (20 μl of 0.5 mg/ml in PBS). Cell inserts were incubated in HCO3^−-containing buffer (5% CO2 environment) and the ASL was imaged using a SMZ stereoscopic microscope (Nikon, Melville, N.Y.) equipped with a C9100 EM-CCD, Exfo XCite light source and BCECF filters (440/10X, 490/20X, 535/25M, Chroma, Bellows Falls, Vt.). In some experiments ASL pH was measured after PDSinh-A01 treatment, as described for ASL depth measurements. To relate BCECF fluorescence to pH, a calibration curve over the quasi-linear range of BCECF sensitivity was generated.

CaCC = experiment: Short-circuit current (Isc) analysis in IL-13-treated HBE cells, ATP response; type: cell-based, human; details: 25 μM, 30 min pre-treatment
Procedure: Further experiments were done with PDSinh-A01 because of its greater inhibition potency for Cl^−/HCO3^− exchange than PDSinh-C01. To investigate PDSinh-A01 specificity, the major ion transport pathways in HBE cells were studied by short-circuit current (Isc) analysis. Cells were treated with IL-13 to increase Ca^2+-activated Cl^− conductance (CaCC) activity. For Isc measurements, cells were sequentially treated with amiloride to inhibit the epithelial sodium channel (ENaC), forskolin to activate the cystic fibrosis transmembrane conductance regulator (CFTR), CFTRinh-172 to inhibit CFTR, and ATP to activate CaCC. In the absence of PDSinh-A01, ion channel modulators produced the anticipated changes in Isc (FIG. 4A).
IL-13-treated HBE cells were cultured on Snapwell clear permeable supports (12 mm diameter, 0.4 μm polyester membrane, Costar, Corning, Corning, N.Y.). Short-circuit current was measured using symmetrical HCO3^−-buffered solutions (in mM: 120 NaCl, 5 KCl, 1 MgCl2, 1 CaCl2, 5 Hepes, 25 NaHCO3; pH 7.4) as described, with ion transport modulators added to both apical and basolateral bathing solutions. Cells were equilibrated with 95% O2/5% CO2 and maintained at 37° C. during data acquisition. Statistical analysis was by Student's t-test.

[3] = Pharmacokinetics in mice, LC/MS of plasma and urine; type: in vivo; details: 10 mg/kg bolus ip
Procedure: Pharmacokinetics measurements were done to guide studies of diuretic efficacy. Animal experiments were approved by UCSF Institutional Animal Care and Use Committee. Female CD1 mice (8-10 weeks) were injected with 10 mg/kg PDSinh-C01 (in saline containing 5% DMSO and 10% Kolliphor HS) ip and blood was collected by orbital puncture at 15, 30, 60, 150 and 240 min, and centrifuged at 5000 rpm for 15 min to separate plasma. Urine was collected in metabolic cages. An LC/MS method was developed to measure PDSinh-C01 concentrations in mouse blood and urine. Plasma and urine samples (60 μL) were mixed with 300-μL acetonitrile and centrifuged at 13000 rpm for 20 min, and 90 μL of the supernatant was taken for liquid chromatography/mass spectrometry (LC/MS; Waters 2695 and Micromass ZQ). […] Sodium and potassium concentrations in 3-h collected urine samples were measured by flame photometry (PFP7 Clinical Flame Photometer, Bibby Scientific Ltd, Stone. Staffs, UK). […] Blood gas was analyzed by iSTAT1 with CG4+ cartridges (Abbott Laboratories, Abbott Park, IL, USA). Urine pH was measured on freshly collected urine samples using an AB 15 pH Meter (Fisher Scientific, Pittsburgh, Pa., USA). Experiments with two groups were analyzed with Student's t-test, and experiments with 3 or more groups were analyzed using one-way analysis of variance and post-hoc Newman-Keuls multiple comparisons test. […]

SMILES	further increase in ASL depth, IL-13-treated cultures ([1]; IL-13-treated) [μm]	effect on ASL depth, basal conditions ([1]; no IL-13)	effect on ASL pH, IL-13-treated cultures ([2]; IL-13-treated)	effect on ASL pH, basal conditions ([2]; no IL-13)	effect on CaCC activity (Isc response) (CaCC)	concentration in plasma [3]	concentration in urine [3]
Cn1nc(COc2cccc(F)c2)c2c1CCN(C(=O)Nc1ccc(Cl)cc1)C2 [PDSinh-A01]	~8	did not significantly change	did not alter ASL pH	did not alter ASL pH	did not affect the activity	–	–
Cc1n[nH]c(-c2cc(S(=O)(=O)NC3CCCc4ccccc43)c(C)s2)c1C (stereo not shown) [PDSinh-C01]	–	–	–	–	–	predicted therapeutic concentrations for several hours	predicted therapeutic concentrations for several hours
